From patent US8349852B2, “Quinazolinone derivatives useful as vanilloid antagonists” (Novartis AG, priority 2009, dated 2013)

Target: human TRPV1 (Homo sapiens, UniProt Q8NER1)
Assay: inhibition of low pH-, capsaicin-, anandamide- and NADA-stimulation of human TRPV1
Type: cell-based
Description: The compounds of formulae (I) and (Ia) and I(B) in crystal form B, and their pharmaceutically acceptable salts and, where possible, pharmaceutically acceptable acid addition salts, have beneficial pharmacological activity and, therefore, are useful as pharmaceuticals.

Chain of human TRPV1 (Q8NER1 whole entry): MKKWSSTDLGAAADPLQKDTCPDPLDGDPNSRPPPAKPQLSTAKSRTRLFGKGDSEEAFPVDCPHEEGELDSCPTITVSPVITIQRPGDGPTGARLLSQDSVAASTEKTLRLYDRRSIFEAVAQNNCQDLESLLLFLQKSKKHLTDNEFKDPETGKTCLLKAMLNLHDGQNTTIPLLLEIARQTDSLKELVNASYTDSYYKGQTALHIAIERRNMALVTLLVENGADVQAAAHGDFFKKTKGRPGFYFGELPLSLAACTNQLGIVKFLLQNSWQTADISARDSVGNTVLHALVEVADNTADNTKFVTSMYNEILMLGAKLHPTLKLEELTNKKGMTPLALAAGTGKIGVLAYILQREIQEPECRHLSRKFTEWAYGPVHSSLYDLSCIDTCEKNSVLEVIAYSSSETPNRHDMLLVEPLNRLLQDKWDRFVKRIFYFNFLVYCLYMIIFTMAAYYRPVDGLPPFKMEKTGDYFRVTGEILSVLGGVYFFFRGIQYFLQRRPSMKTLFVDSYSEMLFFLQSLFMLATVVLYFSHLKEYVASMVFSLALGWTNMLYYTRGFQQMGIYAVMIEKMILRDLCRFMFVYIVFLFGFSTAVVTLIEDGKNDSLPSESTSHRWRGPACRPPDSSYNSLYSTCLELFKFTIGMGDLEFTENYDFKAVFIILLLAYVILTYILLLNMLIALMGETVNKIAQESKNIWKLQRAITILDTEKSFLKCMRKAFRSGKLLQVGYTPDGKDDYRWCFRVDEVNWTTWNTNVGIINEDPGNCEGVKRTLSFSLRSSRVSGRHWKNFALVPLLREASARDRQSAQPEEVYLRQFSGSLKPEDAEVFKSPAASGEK

SMILES: CC(C)c1nc2cc(O)ccc2c(=O)n1-c1ccc(C#N)cc1 [Example 1, 4-(7-hydroxy-2-isopropyl-4-oxo-4H-quinazolin-3-yl)-benzonitrile crystal form B]
- nature of antagonist activity at human TRPV1: non-competitive and reversible
- IC50 (IC50, inhibition of NADA-stimulation of human TRPV1, stimulus: NADA): 27 nM
- IC50 (IC50, inhibition of anandamide-stimulation of human TRPV1, stimulus: anandamide): 10 nM
- IC50 (IC50, inhibition of capsaicin-stimulation of human TRPV1, stimulus: capsaicin): 12 nM
- IC50 (IC50, inhibition of low pH-stimulation of human TRPV1, stimulus: low pH): 5 nM
